Measurements taken from US20060122228A1, “Methods and compositions using immunomodulatory compounds for treatment and management of central nervous system injury” (priority 2004, published 2006).
Several values for one entry are separate records, joined by “and”; a condition that tells them apart may be missing. Equal values may be shown once. Read-outs that look alike come from different tables or passages of the source.

Legend:
[1] = cited from earlier work
IL-10 production = assay: LPS-stimulated production of IL-10 by PBMC; format: cell-based
T-cells = assay: Stimulation of T-cell proliferation following primary induction by T-cell receptor (TCR) activation; format: cell-based
TNF-α production [2] = settings: LPS-stimulated human whole blood, cited from earlier work; for IC50: read-out: IC50 for inhibiting production of TNF-α
IL-6 production = assay: LPS-stimulated production of IL-6 by PBMC; format: cell-based
IL-2 production = assay: Augmentation of IL-2 production following TCR activation of PBMC; format: cell-based
TNF-α production [3] = settings: LPS-stimulated PBMC, cited from earlier work; for IC50: read-out: IC50 for inhibiting production of TNF-α
IL-1β production = assay: LPS-stimulated production of IL-1β by PBMC; format: cell-based
TNF-α production [4] = assay: Inhibition of TNF-α production following LPS-stimulation of human PBMC; format: cell-based
IFN-γ production = assay: Augmentation of IFN-γ production following TCR activation of T-cells; format: cell-based
Hs Sultan cells = assay: Inhibition of proliferation of Hs Sultan cells; format: cell-based; settings: read-out: concentration achieving 50% inhibition of proliferation
MM.IS cells = assay: Inhibition of proliferation of MM.IS cells; format: cell-based; settings: read-out: concentration achieving 50% inhibition of proliferation

## Nc1cccc2c1CN(C1CCC(=O)NC1=O)C2=O (stereo not shown) [Form B, 3-(4-amino-1-oxo-1,3 dihydro-isoindol-2-yl)-piperidene-2,6-dione]
[1]
  stability / interconversion in aqueous solvent systems: converts to Form E

## Nc1cccc2c1CN(C1CCC(=O)NC1=O)C2=O (stereo not shown) [Form A, 3-(4-amino-1-oxo-1,3 dihydro-isoindol-2-yl)-piperidene-2,6-dione]
[1]; anhydrous polymorphs
  thermodynamic stability among polymorphs: most thermodynamically stable anhydrous polymorph

## Nc1cccc2c1CN(C1CCC(=O)NC1=O)C2=O (stereo not shown) [3-(4-amino-1-oxo-1,3-dihydro-isoindol-2-yl)-piperidine-2,6-dione]
IL-10 production
  effect on production of the anti-inflammatory cytokine IL-10: increased production
T-cells
  potency relative to thalidomide in stimulating the proliferation of T-cells: 50-100 times
TNF-α production [2]
  IC50 for inhibiting production of TNF-α: ~0.1036 µg/mL
  IC50: ~480 nM
IL-6 production
  effect on LPS-stimulated production of IL-6: dose-dependent inhibition
IL-2 production
  potency relative to thalidomide in augmenting the production of IL-2: 50-100 times
TNF-α production [3]
  IC50 for inhibiting production of TNF-α: ~0.0259 µg/mL
  IC50: ~100 nM
IL-1β production
  effect on LPS-stimulated production of IL-1β: dose-dependent inhibition
TNF-α production [4]
  effect on LPS-stimulated production of TNF-α: dose-dependent inhibition
IFN-γ production
  potency relative to thalidomide in augmenting the production of IFN-γ: 50-100 times

## Nc1cccc2c1CN(C1CCC(=O)NC1=O)C2=O (stereo not shown) [Form E, 3-(4-amino-1-oxo-1,3 dihydro-isoindol-2-yl)-piperidene-2,6-dione]
[1]
  stability / interconversion in aqueous solvent systems: most stable form

## Nc1cccc2c1C(=O)N(C1CCC(=O)NC1=O)C2=O (stereo not shown) [4-(amino)-2-(2,6-dioxo(3-piperidyl))-isoindoline-1,3-dione]
TNF-α production [2]
  IC50 for inhibiting production of TNF-α: ~0.00683 µg/mL
  IC50: ~25 nM
Hs Sultan cells
  IC50: 0.00273 µg/mL to 0.0273 µg/mL and 10 nM to 100 nM
MM.IS cells
  IC50: 0.00273 µg/mL to 0.0273 µg/mL and 10 nM to 100 nM
TNF-α production [3]
  IC50 for inhibiting production of TNF-α: ~0.00655 µg/mL
  IC50: ~24 nM

## O=C1CCC(N2C(=O)c3ccccc3C2=O)C(=O)N1 (stereo not shown) [Thalidomide, thalidomide, reference compound]
TNF-α production [3]
  IC50 for inhibiting production of TNF-α: ~50.2 µg/mL
  IC50: ~194000 nM
